The text below walks through data of article PMC7344659, “Bioactivity of Spongian Diterpenoid Scaffolds from the Antarctic Sponge Dendrilla antarctica” (Marine Drugs, 2020).

Data set [1] concerns primary human hepatocytes. Kind of data set: Cytotoxicity towards uninfected primary human hepatocytes. The data set is classed as cell-based. As to conditions: for inhibition at 5 µg/mL: Hepatocyte, 5 μg/mL, uninfected primary human hepatocytes, % (Standard Deviation), n = 3, read-out: Plasmodium falciparum Inhibition at 5 μg/mL Uninfected PHHs. The protocol: (§1) The full suite of Dendrilla antarctica-derived compounds, with the exception of darwinolide (1) and dendrillin D (12) owing to mass limitations, were tested against Leishmania donovani infected macrophages, liver-stage sporozoites in primary human hepatocytes, and against MRSA biofilm. Cytotoxicity was evaluated using the mammalian J774A.1 cell line in L. donovani-active compounds, while primary human hepatocytes were evaluated for malaria-active compounds.
(§2) For the Plasmodium falciparum infected liver cells, screening was conducted at a fixed concentration of 5 µg/mL for each compound, and activities representing 60% inhibition and 100% inhibition are reported in comparison with the positive control primaquine. […] Aplysulphurin (2) at ≤13 μM was also active at the highest level.
(§3) The liver-stage Plasmodium falciparum assay was conducted as previously reported.

Data set [2] concerns Leishmania donovani. Nature of the data set: Leishmania donovani infected macrophage assay. The format is cell-based. The method, then:
as §1
The results from the Leishmania donovani assay (Table 2) indicate activity commensurate with the positive control and current standard of care, miltefosine (2.9 µM) is observed in aplysulphurin (2, 3.1 μM), tetrahydroaplysulphurin-1 (4, 3.5 μM), dendrillin B (10, 3.5 μM), 8-ketodihydrogracilin (13, 4.5 μM), and triol 15 (4.5 μM).
(§4) The Leishmania donovani cell line infected macrophage assay and cytotoxicity screen were conducted as previously described.

In data set [3] the test system is MRSA biofilm. Nature of the data set: MRSA biofilm eradication assay. The format is cell-based, methicillin-resistant Staphylococcus aureus. As to conditions: for inhibition at 25 µg/mL / inhibition at 50 µg/mL / inhibition at 100 µg/mL: Staphylococcus aureus, MRSA, % (Std. Dev.), n = 6; for inhibition at 25 µg/mL: 25 μg/mL; for inhibition at 50 µg/mL: 50 μg/mL; for inhibition at 100 µg/mL: 100 μg/mL; for concentration at which activity against MRSA biofilm was exhibited: eradication level not given. The protocol: The MRSA biofilm assay was carried out at concentrations of 100, 50, and 25 µg/mL for each compound, and activities representing 50% and 90% eradication are reported.
The MRSA biofilm assay was conducted as previously reported.

A short description of data set [4]: J774A.1-cell cytotoxicity assay (uninfected macrophage). The data set is classed as cell-based. As to conditions: mouse, J774A.1 macrophage cells (uninfected); Table 3; unit not given (μM in Table 2); read-out: J774 Cytotoxiciy. The protocol: as §1, §4
Data set [5] concerns J774A.1 macrophages. Described as above. The format is cell-based. The conditions noted are these: Mus musculus, J774.A1; cytotoxicity, uninfected J774A.1 macrophages; single point determination; read-out: Leishmania donovani IC50 Uninfected Macrophage. The method, then: as §1, §4
Data set [6] concerns Plasmodium falciparum. Nature of the data set: Liver-stage Plasmodium falciparum assay in primary human hepatocytes. The data set is classed as cell-based. The conditions noted are these: for inhibition at 5 µg/mL: Plasmodium falciparum, Hepatocyte, 5 μg/mL, infected primary human hepatocytes, % (Standard Deviation), n = 3, read-out: Plasmodium falciparum Inhibition at 5 μg/mL Infected PHHs; for concentration with modest activity (60% inhibition) against P. falciparum infected liver cells: 60% inhibition level. The protocol:
as §1, §2, §3

In data set [7] the test system is Leishmania donovani. The arrangement: method as in PMID 32281798. The conditions noted are these: ref [15], cited from earlier work.
Data set [8] has as its system J774A.1 macrophages. The arrangement: method as in PMID 32281798. As to conditions: ref [15], cited from earlier work.
Setting [9] is: Leishmania donovani, J774.A1, J774A.1 macrophages, single point determination, read-out: Leishmania donovani IC50 Infected Macrophage.
The mark [10] stands for this setting: Leishmania donovani, Macrophage, Table 3, unit not given (μM in Table 2), read-out: Pathogen Activity, Leishmania donovani.
Where [11] appears, read: J774A.1 macrophages, single point determination, read-out: Leishmania donovani IC50 Infected Macrophage.
[12] abbreviates: cytotoxicity, uninfected J774A.1 macrophages, single point determination, read-out: Leishmania donovani IC50 Uninfected Macrophage.

Like-named read-outs stand apart in the source and are kept apart here.

Turning to `CCC1=C(C=O)[C@H](C(=O)OC)CC[C@@H]1[C@@]1(C)CCCC(C)(C)C1` (relative stereo) [Dendrillin C (11), dendrillin C], the inhibition at 5 µg/mL in data set [1] came to 3.4%; in data set [6], 1.3%. The IC50 in data set [2] (setting [9]) is greater than 31 µM; in data set [4], greater than 160 µM; in data set [5], greater than 160 µM. The compound also displayed an inhibition at 25 µg/mL in data set [3] of 84%. In data set [3], this compound gave an inhibition at 50 µg/mL of 97.8%. Moreover, the inhibition at 100 µg/mL in data set [3] was 99.2%. The “Pathogen Activity, MRSA Biofilm” value in data set [3] (Table 3, no unit printed there (58 μM)) is listed as 78. In addition, the “concentration achieving 50% eradication of MRSA biofilm” value in data set [3] (tested at 100, 50 and 25 µg/mL, 50% eradication) is 25 µg/mL. Besides, the “concentration at which activity against MRSA biofilm was exhibited” value in data set [3] (tested at 100, 50 and 25 µg/mL) came to 50 µg/mL.

Consider `CC(=O)OC1OC(OC(C)=O)C2C(=O)C(C3(C)CCCC(C)(C)C3)CCC12` (centres unmarked) [8-Ketodihydrogracilin (13), 8-ketodihydrogracilin], for which the inhibition at 5 µg/mL was 2.3% in data set [1] and 0% in data set [6]. Besides, the IC50 in data set [2] (setting [9]) worked out at 4.5 µM; in data set [2] (setting [10]), 4.5 µM; in data set [4], 22 µM; in data set [5], 22 µM. In addition, the “Selectivity Index (SI), Leishmania donovani” value in data set [2] (Table 3, SI = J774 IC50/pathogen IC50) amounted to 5. Moreover, the inhibition at 25 µg/mL in data set [3] was found to be 5.7%. Also, the inhibition at 50 µg/mL in data set [3] came out at 97.7%. Besides, the inhibition at 100 µg/mL in data set [3] was found to be 99.7%. Also, in data set [3] (tested at 100, 50 and 25 µg/mL), the “concentration at which activity against MRSA biofilm was exhibited” value was found to be 50 µg/mL.

`C/C=C1/[C@@H]2[C@@H](OC(C)=O)O[C@@H](OC(C)=O)[C@@H]2CC[C@@H]1[C@@]1(C)CCCC(C)(C)C1` [9,11-Dihydrogracilin A (3), 9,11-dihydrogracilin A]: the IC50 in data set [7] (setting [11]) is 9.1 µM; in data set [8] (setting [12]) it was 23 µM. Moreover, the inhibition at 5 µg/mL came to 1.1% in data set [1] and 0% in data set [6]. Moreover, the inhibition at 25 µg/mL in data set [3] came to 0%. This compound also yielded an inhibition at 50 µg/mL in data set [3] of 29.1%. Further, the inhibition at 100 µg/mL in data set [3] is 12.7%.

As for `CC(=O)O[C@@H]1O[C@H]2OC(=O)[C@H](C)c3c([C@@]4(C)CCCC(C)(C)C4)ccc1c32` [Aplysulphurin (2), aplysulphurin], the IC50 in data set [7] (J774A.1 macrophages, single point determination, listed as 2, read-out: Leishmania donovani IC50 Infected Macrophage) is less than 10 µM; in data set [7] (setting [11]), 3.1 µM; in data set [8] (setting [12]), 12 µM. For the same compound, the “cytotoxicity towards uninfected primary human hepatocytes (in words)” value in data set [1] (5 µg/mL screen) was “no discernable cytotoxicity”. The inhibition at 5 µg/mL in data set [1] came to 7.6%; in data set [6], 100%. In data set [3], the inhibition at 25 µg/mL was 6.5%. For the same compound, the inhibition at 50 µg/mL in data set [3] stood at 29.4%. In data set [3], this compound came in with an inhibition at 100 µg/mL of 21.1%. The “concentration with 100% inhibition against P. falciparum infected liver cells” value in data set [6] (screen at fixed 5 µg/mL, 100% inhibition level (highest level)) was no more than 13 µM.

For the compound `C[C@H]1C(=O)O[C@@H]2OC[C@@H]3CCC([C@@]4(C)CCCC(C)(C)C4)=C1[C@@H]32` [Cadlinolide C (8), cadlinolide C], the inhibition at 5 µg/mL in data set [1] is 0%. The IC50 in data set [2] (setting [9]) worked out at 16 µM. Moreover, in data set [3], the inhibition at 25 µg/mL is 2.6%, the inhibition at 50 µg/mL was 35% and the inhibition at 100 µg/mL turned out to be 85.4%. For the same compound, the IC50 in data set [5] is greater than 160 µM. In addition, in data set [6], the inhibition at 5 µg/mL came out at 0%.

Consider `CC(=O)O[C@@H]1O[C@H](OC(C)=O)[C@@H]2[C@H]1CC[C@H](/C(C)=C1/CCCC1(C)C)C2(C)C` [Compound 7], for which, in data set [1], the inhibition at 5 µg/mL was 0.7%. In data set [2] (setting [9]), the IC50 came out at 14 µM. Also, in data set [3], the inhibition at 25 µg/mL stood at 3.9%, the inhibition at 50 µg/mL came to 28.7% and the inhibition at 100 µg/mL is 2.9%. The IC50 in data set [5] was found to be 18 µM. Further, the inhibition at 5 µg/mL in data set [6] came to 39.3%.

`CC(=O)OC1OC(OC(C)=O)C2C1CCC(C1(C)CCCC(C)(C)C1)C21OC1C` (centres unmarked) [Dendrillin A (9), dendrillin A]: the values for the inhibition at 5 µg/mL in data set [1] and in data set [6] were 2.9% and 4.3%, respectively. Further, the IC50 in data set [2] (setting [9]) worked out at 6 µM; in data set [5] it was 9 µM. In data set [3], this compound had an inhibition at 25 µg/mL of 0%. Further, the inhibition at 50 µg/mL in data set [3] came out at 0%. For the same compound, the inhibition at 100 µg/mL in data set [3] worked out at 0%.

Regarding `COC(=O)C(C)c1c(C2(C)CCCC(C)(C)C2)ccc2c1C(O)OC2=O` (centres unmarked) [Dendrillin B (10), dendrillin B], the inhibition at 5 µg/mL in data set [1] and in data set [6] was 0% throughout. For the same compound, the IC50 is less than 10 µM in data set [2] (setting [11]), 3.5 µM in data set [2] (setting [10]), greater than 140 µM in data set [4] and greater than 140 µM in data set [5]. For the same compound, the inhibition at 25 µg/mL in data set [3] came out at 37%. Also, the inhibition at 50 µg/mL in data set [3] was determined as 19.4%. Further, the inhibition at 100 µg/mL in data set [3] amounted to 90.7%.

Consider `C/C(=C1\CCCC1(C)C)[C@H]1CC[C@H]2C(=O)OC[C@H]2C1(C)C` [Glaciolide (6), glaciolide], for which the inhibition at 5 µg/mL is 4.5% in data set [1] and 0% in data set [6]. The figures for the IC50 in data set [2] (setting [9]) and in data set [5] were 8.8 µM and greater than 170 µM, respectively. This compound also had an inhibition at 25 µg/mL in data set [3] of 20%. In data set [3], this compound showed an inhibition at 50 µg/mL of 20.8%. The compound also registered an inhibition at 100 µg/mL in data set [3] of 32.2%.

On to `CCCCCCCCCCCCCCCCOP(=O)([O-])OCC[N+](C)(C)C` [Miltefosine, miltefosine, reference compound], for which the IC50 was 2.9 µM in data set [2] (setting [9]) and greater than 120 µM in data set [5].

Regarding `CC(=O)O[C@@H]1OC2OC(=O)[C@H](C)C34OOC([C@@]5(C)CCCC(C)(C)C5)(CC[C@@H]1C23)O4` (some centres unmarked) [Ozonide (14), tetrahydroaplysulphurin ozonide], the inhibition at 5 µg/mL in data set [1] is 18.6%. Also, the IC50 in data set [2] (setting [9]) came to 9.9 µM. Moreover, in data set [3], the inhibition at 25 µg/mL was found to be 17.7%, the inhibition at 50 µg/mL was 40.6% and the inhibition at 100 µg/mL was found to be 99.9%. Further, in data set [5], the IC50 was 17 µM. Also, in data set [6], the inhibition at 5 µg/mL came to 61.7%. For the same compound, the “concentration with modest activity (60% inhibition) against P. falciparum infected liver cells” value in data set [6] (screen at fixed 5 µg/mL) is no more than 15 µM.

On to `COc1cc(NC(C)CCCN)c2ncccc2c1` (centres unmarked) [Primaquine, primaquine, reference compound], for which the values for the inhibition at 5 µg/mL in data set [1] and in data set [6] were 0% and 97.8%, respectively.

As to `CC(=O)OC1OC2OC(=O)C(C)C3=C(C4(C)CCCC(C)(C)C4)CCC1C32` (centres unmarked) [Tetrahydroaplysulphurin-1 (4), tetrahydroaplysulphurin-1], the IC50 is 3.5 µM in data set [7] (setting [11]); 3.5 µM in data set [7] (Table 3, unit not given (μM in Table 2), read-out: Pathogen Activity, Leishmania donovani); greater than 130 µM in data set [8] (Table 3, no unit printed there, same values marked as from reference in Table 2, read-out: J774 Cytotoxiciy); greater than 130 µM in data set [8] (setting [12]). The figures for the inhibition at 5 µg/mL in data set [1] and in data set [6] were 3% and 66.7%, respectively. The inhibition at 25 µg/mL in data set [3] is 35%. The inhibition at 50 µg/mL in data set [3] amounted to 31.1%. In data set [3], this compound displayed an inhibition at 100 µg/mL of 20.8%. For the same compound, the “concentration with modest activity (60% inhibition) against P. falciparum infected liver cells” value in data set [6] (screen at fixed 5 µg/mL) was no more than 13 µM.
